From US11117901B2, “Substituted pyrazolo[4,3-h]quinazolines as choline kinase inhibitors” (NERVIANO MEDICAL SCIENCES S.R.L., priority 2017, dated 2021)
pIC50: −log10 of the molar value.

How the values were obtained:
hChoKβ FL = target: T1, hChoKβ FL (Homo sapiens, UniProt Q9Y259); assay: Biochemical kinase inhibition assay (Kinase-Glo luminescent) on hChoKβ FL; conditions: recombinant hChoKβ FL 30 nM, ATP 5 μM, choline 20 μM, 60 min rt; read-out: ChoKβ IC50
T1 construct: hChoKβ full length (FL), corresponding to aminoacids 2-395; GST (N, cleaved yes); PreScission Protease recognition site (N); made in house; host or cells: Escherichia coli BL21pLysS (DE3)
T1 sequence (Q9Y259 2-395): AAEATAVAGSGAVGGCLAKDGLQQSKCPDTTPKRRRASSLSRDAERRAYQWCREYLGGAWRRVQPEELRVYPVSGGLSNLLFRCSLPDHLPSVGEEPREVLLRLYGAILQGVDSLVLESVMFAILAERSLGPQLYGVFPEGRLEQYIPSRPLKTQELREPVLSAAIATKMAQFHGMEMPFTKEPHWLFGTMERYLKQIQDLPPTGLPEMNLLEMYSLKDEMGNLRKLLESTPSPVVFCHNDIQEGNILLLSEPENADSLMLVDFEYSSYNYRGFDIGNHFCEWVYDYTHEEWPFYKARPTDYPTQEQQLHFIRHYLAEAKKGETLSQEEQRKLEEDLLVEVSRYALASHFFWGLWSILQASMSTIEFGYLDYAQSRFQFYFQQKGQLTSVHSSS
Summary of the method: (§1)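 Kinase-Glo residual-ATP luminescence with in-house E. coli-expressed, tag-cleaved enzymes: Δ49N-hChoKα 2.2 nM with 5 μM choline; hChoKβ FL 30 nM with 20 μM choline. Both used 5 μM ATP, 60 min at room temperature, 1% DMSO, pH 7.5 Hepes buffer. IC50 from 4-parameter fits of ten 3-fold dilutions from 10 μM.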

Δ49N-hChoKα = target: T2, Δ49N-hChoKα (Homo sapiens, UniProt P35790); assay: Biochemical kinase inhibition assay (Kinase-Glo luminescent) on Δ49N-hChoKα; conditions: recombinant Δ49N-hChoKα 2.2 nM, ATP 5 μM, choline 5 μM, 60 min rt; read-out: ChoKα IC50
T2 construct: cDNA fragment 362-1534, corresponding to aminoacids 50 457; GST (N, cleaved yes); PreScission Protease recognition site (N); made in house; host or cells: Escherichia coli BL21pLysS (DE3)
T2 sequence (P35790 50-439 isoform P35790-2): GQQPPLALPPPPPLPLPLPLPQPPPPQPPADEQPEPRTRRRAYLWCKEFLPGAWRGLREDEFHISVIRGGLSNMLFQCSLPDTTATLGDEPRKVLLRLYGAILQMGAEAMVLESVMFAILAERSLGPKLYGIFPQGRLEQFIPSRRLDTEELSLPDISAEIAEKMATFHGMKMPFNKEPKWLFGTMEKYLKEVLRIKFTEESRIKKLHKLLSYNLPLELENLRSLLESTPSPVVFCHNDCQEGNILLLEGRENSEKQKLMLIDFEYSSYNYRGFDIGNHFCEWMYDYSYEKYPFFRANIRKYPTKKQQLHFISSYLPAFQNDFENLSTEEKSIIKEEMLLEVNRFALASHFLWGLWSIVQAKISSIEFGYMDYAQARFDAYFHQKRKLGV
Summary of the method: as §1

Row | pIC50 (hChoKβ FL) | pIC50 (Δ49N-hChoKα) | SMILES
1 | 5.64 | 6.10 | CCOC(=O)c1cccc(NC(=O)c2n[nH]c3c2C(C)(C)Cc2cnc(N)nc2-3)c1 [compound 17]
2 | 5.96 | 6.45 | CN(C)[C@@H]1CCN(Cc2csc(NC(=O)c3n[nH]c4c3C(C)(C)Cc3cnc(N)nc3-4)n2)C1 [compound 148]
3 | < 5.00 | 6.64 | CC1(C)Cc2cnc(N)nc2-c2[nH]nc(C(=O)Nc3nc(CC(=O)N4CCC(O)CC4)cs3)c21 [compound 92]
4 | < 5.00 | 6.73 | CN(C(=O)c1nn(C)c2c1C(C)(C)Cc1cnc(N)nc1-2)c1nc(CC(=O)N2CCC(N3CCCCC3)CC2)cs1 [compound 124]
5 | 5.96 | 7.18 | Cc1csc(NC(=O)c2n[nH]c3c2C(C)(C)Cc2cnc(N)nc2-3)n1 [compound 32]
6 | 6.35 | 7.59 | COc1ccc2nc(NC(=O)c3n[nH]c4c3C(C)(C)Cc3cnc(N)nc3-4)sc2c1 [compound 63]
7 | < 5.00 | 6.34 | Cc1csc(NC(=O)c2nn(CCO)c3c2C(C)(C)Cc2cnc(N)nc2-3)n1 [compound 182]
8 | < 5.00 | 6.21 | Cn1nc(C(=O)Nc2nc(CN3CCC(N4CCCCC4)CC3)cs2)c2c1-c1nc(N)ncc1CC2(C)C [compound 141]
9 | 5.60 | 6.57 | CC1(C)Cc2cnc(N)nc2-c2[nH]nc(C(=O)Nc3ncc(CC(=O)O)s3)c21 [compound 72]
10 | 6.35 | 7.80 | CC1(C)Cc2cnc(N)nc2-c2[nH]nc(C(=O)Nc3nc(COC4CCN(Cc5ccccc5)CC4)cs3)c21 [compound 213]
11 | 5.65 | 7.60 | CC1(C)Cc2cnc(N)nc2-c2[nH]nc(C(=O)Nc3nc(CC(=O)N4CCN(c5ccccc5)CC4)cs3)c21 [compound 160]
12 | 5.59 | 6.66 | Cc1nc(NC(=O)c2n[nH]c3c2C(C)(C)Cc2cnc(N)nc2-3)sc1C(=O)N1CCC(N2CCCCC2)CC1 [compound 78]
13 | < 5.00 | 6.66 | CC1(C)Cc2cnc(N)nc2-c2[nH]nc(C(=O)Nc3nc(C4(C(=O)O)CC4)cs3)c21 [compound 129]
14 | 6.60 | 8.70 | CC1(C)CCN(C2CCN(C(=O)Cc3csc(NC(=O)c4n[nH]c5c4C(C)(C)Cc4cnc(N)nc4-5)n3)CC2)CC1 [compound 218]
15 | 7.06 | 7.44 | CN1CCC(NC(=O)c2csc(NC(=O)c3n[nH]c4c3C(C)(C)Cc3cnc(N)nc3-4)n2)CC1 [compound 69]
16 | 6.53 | 8.22 | CC1(C)Cc2cnc(N)nc2-c2[nH]nc(C(=O)Nc3nc(COC4CCN(C5CCCCC5)CC4)cs3)c21 [compound 157]
17 | 5.67 | 6.73 | CC1CCN(C2CCN(Cc3cccc(NC(=O)c4n[nH]c5c4C(C)(C)Cc4cnc(N)nc4-5)c3)CC2)CC1 [compound 112]
18 | 5.27 | 6.16 | CN1CCC(NC(=O)c2ccc(NC(=O)c3nn(CCCO)c4c3C(C)(C)Cc3cnc(N)nc3-4)cc2)CC1 [compound 9]
19 | < 5.00 | 7.28 | CC1CCN(C2CCN(C(=O)Cc3csc(N(C)C(=O)c4n[nH]c5c4C(C)(C)Cc4cnc(N)nc4-5)n3)CC2)CC1 [compound 123]
20 | 5.65 | 8.05 | CC1CCN(C2CCN(C(=O)Cc3csc(NC(=O)c4nn(C)c5c4CC(C)(C)c4cnc(N)nc4-5)n3)CC2)CC1 [compound 225]
21 | 7.20 | 7.12 | CC1(C)Cc2cnc(N)nc2-c2[nH]nc(C(=O)Nc3ccc(C(=O)NC4CCCCC4)cc3)c21 [compound 16]
22 | 6.50 | 6.13 | CN1CCN(c2ccc(NC(=O)c3n[nH]c4c3C(C)(C)Cc3cnc(N)nc3-4)cc2)CC1 [compound 6]
23 | < 5.00 | 7.27 | CC1(C)Cc2cnc(N)nc2-c2[nH]nc(C(=O)Nc3nc(CC(=O)O)cs3)c21 [compound 42]

Row | pIC50 (hChoKβ FL) | pIC50 (Δ49N-hChoKα) | SMILES
24 | < 5.00 | 6.21 | COC(=O)C1(c2csc(NC(=O)c3n[nH]c4c3C(C)(C)Cc3cnc(N)nc3-4)n2)CC1 [compound 127]
25 | 5.80 | 6.59 | COc1cccc(NC(=O)c2n[nH]c3c2C(C)(C)Cc2cnc(N)nc2-3)c1 [compound 1]
26 | 7.16 | 8.52 | CC1(C)Cc2cnc(N)nc2-c2[nH]nc(C(=O)Nc3nc(CC(=O)N4CCC(N5CCCC5)CC4)cs3)c21 [compound 37]
27 | 6.87 | 6.96 | CC1(C)Cc2cnc(N)nc2-c2[nH]nc(C(=O)Nc3ccc(C(=O)NC4CCC4)cc3)c21 [compound 30]
28 | 5.24 | 6.15 | CC1(C)Cc2cnc(N)nc2-c2[nH]nc(C(=O)Nc3ncc(Cl)s3)c21 [compound 66]
29 | < 5.00 | 6.32 | CC1(C)Cc2cnc(N)nc2-c2[nH]nc(C(=O)N3CCC(N4CCCC4)CC3)c21 [compound 36]
30 | 7.16 | 6.74 | CC1(C)Cc2cnc(N)nc2-c2[nH]nc(C(=O)NCc3ccc(C(=O)N4CCC(N5CCCCC5)CC4)cc3)c21 [compound 165]
31 | < 5.00 | 6.13 | CC1(C)Cc2cnc(N)nc2-c2[nH]nc(C(=O)NC3CCCCC3)c21 [compound 34]
32 | < 5.00 | 6.97 | CC1CCN(C2CCN(C(=O)Cc3csc(NC(=O)c4c5c(nn4C)-c4nc(N)ncc4CC5(C)C)n3)CC2)CC1 [compound 211]
33 | 5.40 | 8.30 | Cn1nc(C(=O)Nc2nc(CC(=O)N3CCC(N4CCCCC4)CC3)cs2)c2c1-c1nc(N)ncc1CC2(C)C [compound 108]
34 | 5.58 | 6.62 | CC1(C)Cc2cnc(N)nc2-c2[nH]nc(C(=O)Nc3nccs3)c21 [compound 61]
35 | 7.07 | 8.70 | CC1(C)Cc2cnc(N)nc2-c2[nH]nc(C(=O)Nc3nc(CC(=O)N4CCC(N5CCCCCC5)CC4)cs3)c21 [compound 47]
36 | 5.86 | 7.52 | CC(C)=CC(=O)CC(C)(C)NC(=O)Cc1csc(NC(=O)c2n[nH]c3c2C(C)(C)Cc2cnc(N)nc2-3)n1 [compound 220]
37 | 5.62 | 7.16 | Cc1nc(NC(=O)c2n[nH]c3c2C(C)(C)Cc2cnc(N)nc2-3)sc1C(=O)NC1CCN(C)CC1 [compound 79]
38 | 6.37 | 6.59 | CC1(C)Cc2cnc(N)nc2-c2[nH]nc(C(=O)Nc3ccc(C(=O)NC4CC4)cc3)c21 [compound 31]
39 | 6.05 | 7.77 | CC1CCN([C@H]2CC[C@H](OCc3csc(NC(=O)c4n[nH]c5c4C(C)(C)Cc4cnc(N)nc4-5)n3)CC2)CC1 [compound 170]
40 | 6.23 | 7.62 | CC1(C)Cc2cnc(N)nc2-c2[nH]nc(C(=O)Nc3nc(COC4CCN(C5CCC6(CC5)CC6)CC4)cs3)c21 [compound 230]
41 | 5.27 | 6.76 | CN1CCc2nc(NC(=O)c3n[nH]c4c3C(C)(C)Cc3cnc(N)nc3-4)sc2C1 [compound 151]
42 | 6.11 | 8.00 | CC1(C)CCC(N2CCC(OCc3csc(NC(=O)c4n[nH]c5c4C(C)(C)Cc4cnc(N)nc4-5)n3)CC2)CC1 [compound 221]
43 | 5.79 | 6.96 | CC(C)(C)OC(=O)NC1CCN(C(=O)c2ccc(NC(=O)c3n[nH]c4c3C(C)(C)Cc3cnc(N)nc3-4)cc2)CC1 [compound 46]
44 | 6.87 | 6.87 | CN1CCC(NC(=O)c2ccc(CNC(=O)c3n[nH]c4c3C(C)(C)Cc3cnc(N)nc3-4)cc2)CC1 [compound 166]
45 | 6.64 | 8.30 | CC1(C)Cc2cnc(N)nc2-c2[nH]nc(C(=O)Nc3nc(COC4CCN(C5CCCCCC5)CC4)cs3)c21 [compound 209]
46 | 6.09 | 6.68 | CC1(C)Cc2cnc(N)nc2-c2[nH]nc(C(=O)Nc3ccc(C(=O)N4CCC(N5CCOC5=O)CC4)cc3)c21 [compound 56]

Row | SMILES | pIC50 (hChoKβ FL) | pIC50 (Δ49N-hChoKα)
47 | CN(C)[C@@H]1CCN(C(=O)Cc2csc(NC(=O)c3n[nH]c4c3C(C)(C)Cc3cnc(N)nc3-4)n2)C1 [compound 116] | 7.11 | 8.40
